Test results as given in patent US7632666B2 (priority 2005, dated 2009).
Where two headings read alike, the source gives them in different places.

What was measured:
[1] = system: haloalkane dehalogenase DbeA; format: biochemical, Bradyrhizobium elkanii; conditions: pH 8.2
[2] = molecular target: haloalkane dehalogenase DbjA (Bradyrhizobium diazoefficiens, UniProt P59337); format: biochemical, Bradyrhizobium japonicum USDA110
[3] = molecular target: haloalkane dehalogenase LinB (Sphingobium indicum, UniProt D4Z2G1); format: biochemical, Sphingomonas paucimobilis UT26
[4] = molecular target: haloalkane dehalogenase DhaA (Rhodococcus rhodochrous, UniProt P0A3G2); format: biochemical, Rhodococcus rhodochrous NCIMB 13064
[5] = molecular target: haloalkane dehalogenase DhlA (Xanthobacter autotrophicus, UniProt P22643); format: biochemical, Xanthobacter autotrophicus GJ10
[6] = system: haloalkane dehalogenases DmbA, DmbB, DmbC, DhlA, DhaA, DrbA, LinB, DhmA, DbjA and DbeA; format: biochemical
[7] = molecular target: haloalkane dehalogenase DhmA (Mycobacterium avium, UniProt Q93K00); format: biochemical; conditions: pH 8.2
[8] = system: haloalkane dehalogenase DrbA; format: biochemical, Rhodopirellula baltica; conditions: pH 8.2
[9] = molecular target: haloalkane dehalogenase DmbC (Mycobacterium bovis, UniProt P64304); format: biochemical; conditions: pH 8.2
[10] = molecular target: haloalkane dehalogenase DmbB (Mycobacterium bovis, UniProt P64302); format: biochemical; conditions: pH 8.2
[11] = molecular target: modified protein MUT01 with haloalkane dehalogenase activity (Rhodococcus rhodochrous, UniProt P0A3G2, A172V/C176G/F144A/G171R/INS140[…]/K175G/P142A/V245A/W141H); format: biochemical; conditions: pH 8.2

| SMILES | E-value, chiral recognition by DbeA [1] | E-values DbjA [2] | E-value, chiral recognition by DbjA ([2]; pH 8.2) | E-values LinB [3] | E-values DhaA [4] | E-values DhlA [5] | enantioselectivity [6] | E-values DhmA [7] | E-values DrbA [8] | E-values DbeA [1] | E-values DbjA ([2]; pH 8.2) | E-values DmbC [9] | E-values LinB ([3]; pH 8.2) | E-values DhaA ([4]; pH 8.2) | E-values DmbB [10] | E-value, chiral recognition by protein MUT01 [11] | E-value, chiral recognition by DhaA ([4]; pH 8.2) |
| --- | --- | --- | --- | --- | --- | --- | --- | --- | --- | --- | --- | --- | --- | --- | --- | --- | --- |
| CCCC(C)Br (racemic) [2-bromopentane] | 98 | 145 | > 145 | 16 | 7 | 5.5 | – | – | – | – | – | – | – | – | – | – | – |
| CC(Br)C(=O)c1ccccc1 (racemic) [2-bromopropiophenone] | – | >200 | > 200 | 13 | >200 | – | excellent enantioselectivity | – | – | – | – | – | – | – | – | – | – |
| CCOC(=O)C(Br)CC (racemic) [ethyl 2-bromobutyrate] | – | >200 | – | >200 | >200 | – | – | >200 | >200 | >200 | >200 | >200 | >200 | >200 | >200 | – | – |
| CCOC(=O)C(C)Br (racemic) [ethyl 2-bromopropionate] | – | 194 | – | 97 | 59 | – | excellent enantioselectivity | – | – | – | – | – | – | – | – | > 200 | – |
| COC(=O)C(C)Br (racemic) [methyl 2-bromopropionate] | – | >200 | – | 52 | 68 | – | excellent enantioselectivity | – | – | – | – | – | – | – | – | – | > 200 |
